Test results published in ChEMBL document CHEMBL1149210, “A novel series of potent and selective small molecule inhibitors of the complement component C1s” (Bioorg Med Chem Lett, 2004).

Target: Coagulation factor X (Homo sapiens, UniProt P00742)
Experiment: In vitro binding affinity towards Coagulation factor X was determined

Sequence of Coagulation factor X (P00742 41-179 limits assumed): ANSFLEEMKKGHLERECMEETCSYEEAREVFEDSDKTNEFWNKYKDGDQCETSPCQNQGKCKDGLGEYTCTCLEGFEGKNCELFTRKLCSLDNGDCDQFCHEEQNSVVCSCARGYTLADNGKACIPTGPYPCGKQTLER
Sequence of Coagulation factor X (P00742 235-488 limits assumed): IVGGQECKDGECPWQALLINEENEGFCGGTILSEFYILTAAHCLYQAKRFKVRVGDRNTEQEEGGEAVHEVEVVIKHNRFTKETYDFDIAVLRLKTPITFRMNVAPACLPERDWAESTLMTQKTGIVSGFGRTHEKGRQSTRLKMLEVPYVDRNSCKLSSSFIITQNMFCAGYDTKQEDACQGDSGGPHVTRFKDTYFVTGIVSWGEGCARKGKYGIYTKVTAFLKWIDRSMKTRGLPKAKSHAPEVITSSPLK

| Structure (SMILES) | Ki |
| --- | --- |
| CCCc1c(-c2csc(-c3cc(C(=N)N)sc3SC)n2)cnn1-c1ccccn1 | 5000 nM |

Target: Plasminogen (Rattus norvegicus, UniProt Q01177)
Experiment: In vitro binding affinity towards plasmin was determined

Sequence of Plasminogen (Q01177 97-581 limits assumed): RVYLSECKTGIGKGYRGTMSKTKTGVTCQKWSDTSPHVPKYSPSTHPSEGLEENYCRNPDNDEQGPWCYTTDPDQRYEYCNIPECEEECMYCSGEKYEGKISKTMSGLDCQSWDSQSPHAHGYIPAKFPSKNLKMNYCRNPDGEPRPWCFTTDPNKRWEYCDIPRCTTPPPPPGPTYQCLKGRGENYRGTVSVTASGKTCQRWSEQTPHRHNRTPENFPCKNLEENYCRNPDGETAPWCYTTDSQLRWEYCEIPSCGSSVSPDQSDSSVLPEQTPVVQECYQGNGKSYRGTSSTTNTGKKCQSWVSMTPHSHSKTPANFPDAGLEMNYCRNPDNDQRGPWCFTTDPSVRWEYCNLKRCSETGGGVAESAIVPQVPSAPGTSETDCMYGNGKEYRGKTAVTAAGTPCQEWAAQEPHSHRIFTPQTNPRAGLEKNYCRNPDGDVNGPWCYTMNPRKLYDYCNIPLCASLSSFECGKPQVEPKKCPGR
Sequence of Plasminogen (Q01177 582-812 limits assumed): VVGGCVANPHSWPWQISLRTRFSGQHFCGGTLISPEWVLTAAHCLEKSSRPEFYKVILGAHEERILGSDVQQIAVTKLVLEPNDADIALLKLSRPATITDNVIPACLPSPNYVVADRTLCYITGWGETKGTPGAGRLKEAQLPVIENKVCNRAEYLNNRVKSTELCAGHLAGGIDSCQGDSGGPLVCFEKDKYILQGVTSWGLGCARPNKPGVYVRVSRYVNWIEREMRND

| Structure (SMILES) | Ki |
| --- | --- |
| CCCc1c(-c2csc(-c3cc(C(=N)N)sc3SC)n2)cnn1-c1ccccn1 | 5000 nM |

Target: not listed separately
Experiment: In vitro binding affinity towards human Complement C1r subcomponent

| Structure (SMILES) | Ki |
| --- | --- |
| CCCc1c(-c2csc(-c3cc(C(=N)N)sc3SC)n2)cnn1-c1ccccn1 | > 50000 nM |

Target: Serine protease 1 (Homo sapiens, UniProt P07477)
Experiment: In vitro binding affinity towards trypsin was determined

Sequence of Serine protease 1 (P07477 whole entry): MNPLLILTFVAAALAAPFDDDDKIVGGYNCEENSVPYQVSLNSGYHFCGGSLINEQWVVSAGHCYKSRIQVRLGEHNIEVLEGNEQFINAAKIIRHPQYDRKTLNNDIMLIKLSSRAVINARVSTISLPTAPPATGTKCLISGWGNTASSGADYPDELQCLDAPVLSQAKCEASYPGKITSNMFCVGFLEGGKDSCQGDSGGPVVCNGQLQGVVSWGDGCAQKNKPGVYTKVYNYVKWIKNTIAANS

| Structure (SMILES) | Ki |
| --- | --- |
| CCCc1c(-c2csc(-c3cc(C(=N)N)sc3SC)n2)cnn1-c1ccccn1 | 180 nM |

Target: Prothrombin (Homo sapiens, UniProt P00734)
Experiment: In vitro binding affinity towards thrombin was determined

| Structure (SMILES) | Ki |
| --- | --- |
| CCCc1c(-c2csc(-c3cc(C(=N)N)sc3SC)n2)cnn1-c1ccccn1 | > 50000 nM |

Target: T1, Complement C1s subcomponent (Homo sapiens, UniProt P09871)
T1 sequence (P09871 whole entry): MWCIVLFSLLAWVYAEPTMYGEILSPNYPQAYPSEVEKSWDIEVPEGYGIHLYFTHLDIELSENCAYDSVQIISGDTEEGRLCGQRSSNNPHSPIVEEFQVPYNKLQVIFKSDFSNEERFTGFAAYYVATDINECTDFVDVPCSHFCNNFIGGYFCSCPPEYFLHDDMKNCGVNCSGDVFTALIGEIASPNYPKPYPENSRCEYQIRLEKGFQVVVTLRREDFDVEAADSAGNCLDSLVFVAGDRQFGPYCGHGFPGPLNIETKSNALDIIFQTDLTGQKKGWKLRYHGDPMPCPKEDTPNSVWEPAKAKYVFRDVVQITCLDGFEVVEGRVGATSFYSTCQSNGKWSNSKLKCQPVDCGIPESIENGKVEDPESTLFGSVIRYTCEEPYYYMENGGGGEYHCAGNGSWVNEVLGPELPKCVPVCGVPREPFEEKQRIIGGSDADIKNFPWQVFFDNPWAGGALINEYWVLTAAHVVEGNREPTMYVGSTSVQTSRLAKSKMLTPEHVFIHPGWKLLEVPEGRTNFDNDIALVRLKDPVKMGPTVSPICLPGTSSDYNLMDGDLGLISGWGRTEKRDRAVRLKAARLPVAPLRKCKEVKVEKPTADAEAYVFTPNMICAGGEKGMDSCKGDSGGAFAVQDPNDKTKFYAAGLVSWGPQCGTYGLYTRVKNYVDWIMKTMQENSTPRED
Experiment: In vitro binding affinity towards human Complement C1s subcomponent

| Structure (SMILES) | Ki |
| --- | --- |
| CSc1sc(C(=N)N)cc1-c1nc(-c2cnn(-c3ccccc3)c2OCCC(C)C)cs1 | 1500 nM |
| CSc1sc(C(=N)N)cc1-c1nc(-c2cnn(C)c2)cs1 | 460 nM |
| CSc1sc(C(=N)N)cc1-c1nc(-c2cnn(-c3ccccc3)c2OCC2CCC2)cs1 | 530 nM |
| N=C(N)c1cc(-c2nc(-c3ccccc3)cs2)c(C(F)(F)F)s1 | 12500 nM |
| N=C(N)c1cc(-c2nc(-c3ccccc3)cs2)c(SCc2ccccc2)s1 | > 20000 nM |
| CCSc1sc(C(=N)N)cc1-c1nc(-c2ccccc2)cs1 | > 20000 nM |
| CS(=O)(=O)c1sc(C(=N)N)cc1-c1nc(-c2ccccc2)cs1 | > 28000 nM |
| Cc1sc(C(=N)N)cc1-c1nc(-c2ccccc2)cs1 | 6000 nM |
| CCCc1nn(C)cc1-c1csc(-c2cc(C(=N)N)sc2SC)n1 | 190 nM |
| CSc1sc(C(=N)N)cc1-c1nc(-c2ccccc2)cs1 | 560 nM |
| COc1ccccc1-c1csc(-c2cc(C(=N)N)sc2SC)n1 | 850 nM |
| CSc1sc(C(=N)N)cc1-c1nc(C2CCCCC2)cs1 | 4700 nM |
| CSc1sc(C(=N)N)cc1-c1nc(-c2ccc(Cl)cc2Cl)cs1 | 3000 nM |
| CSc1sc(C(=N)N)cc1-c1nc(-c2cccnc2Cl)cs1 | 1020 nM |
| COc1ccc(-c2csc(-c3cc(C(=N)N)sc3SC)n2)cc1 | 900 nM |
| CSc1sc(C(=N)N)cc1-c1nc(-c2ccc(Cl)cc2)cs1 | 436 nM |
| COc1ccc(-c2csc(-c3cc(C(=N)N)sc3SC)n2)c(OC)c1 | 640 nM |
| CSc1sc(C(=N)N)cc1-c1nc(-c2cccc(C)c2)cs1 | 960 nM |
| CSc1sc(C(=N)N)cc1-c1nc(-c2cnccc2Cl)cs1 | 870 nM |
| CSc1sc(C(=N)N)cc1-c1nc(COc2ccccc2)cs1 | 520 nM |

| Structure (SMILES) | Ki |
| --- | --- |
| CSc1sc(C(=N)N)cc1-c1nc(-c2csc3ccccc23)cs1 | 450 nM |
| CSc1sc(C(=N)N)cc1-c1nc(-c2ccccc2C)cs1 | 850 nM |
| CSc1sc(C(=N)N)cc1-c1nc(-c2ccc([N+](=O)[O-])cc2)cs1 | 1000 nM |
| COc1cccc(-c2csc(-c3cc(C(=N)N)sc3SC)n2)c1 | 470 nM |
| CSc1sc(C(=N)N)cc1-c1nc(Cc2ccccc2)cs1 | 1060 nM |
| CSc1sc(C(=N)N)cc1-c1nc(-c2ccc3ccccc3c2)cs1 | 490 nM |
| CSc1sc(C(=N)N)cc1-c1nc(-c2ccc(C)cc2)cs1 | 420 nM |
| CSc1sc(C(=N)N)cc1-c1nc(-c2cccs2)cs1 | 700 nM |
| CCCc1c(-c2csc(-c3cc(C(=N)N)sc3SC)n2)cnn1-c1ccccn1 | 70 nM |
| CCCc1c(-c2csc(-c3cc(C(=N)N)sc3SC)n2)cnn1C | 330 nM |
| CCCc1c(-c2csc(-c3cc(C(=N)N)sc3SC)n2)cnn1-c1ccccc1 | 60 nM |
| CCOc1c(-c2csc(-c3cc(C(=N)N)sc3SC)n2)cnn1-c1ccccc1 | 90 nM |
| N=C(N)c1cc(-c2nc(-c3ccccc3)cs2)cs1 | > 20000 nM |
| COc1sc(C(=N)N)cc1-c1nc(-c2ccccc2)cs1 | 14400 nM |
| CSc1sc(C(=N)N)cc1-c1ncc(-c2ccccc2)s1 | 3250 nM |
| CSc1sc(C(=N)N)cc1-c1nc(-c2cnn(-c3ccccc3)c2)cs1 | 150 nM |
| CSc1sc(C(=N)N)cc1-c1nc(-c2ccc(Cl)c([N+](=O)[O-])c2)cs1 | 860 nM |
| CSc1sc(C(=N)N)cc1-c1nc(-c2ccc(-c3ccccc3)cc2)cs1 | 15400 nM |
| CCc1sc(C(=N)N)cc1-c1nc(-c2ccccc2)cs1 | 3000 nM |
